The values that follow come from patent US20040167226A1, “Methods for the treatment of pain and traumatic injury using benzamides and compositions containing the same” (priority 2002, published 2004).

Data set [1] is described as follows: Absolute oral bioavailability and blood t1/2 of Compound A. The conditions noted are these: rat, whole blood. It is filed as in vivo, rats. As to the method:
The absolute oral bioavailability of Compound A was determined by comparing the area-under-the-curve (“AUC”) following a 20 mg/kg IV dose of Compound A (2 ml/kg, 75% PEG solution) to a 20 mg/kg dose of Compound A dissolved in 1% methyl cellulose. Blood concentrations were determined at 0, 0.083, 0.15, 0.5, 1, 2, 4, 8, and 24 hours post-IV dose and 0, 0.5, 1, 2, 4 and 8 hours post-oral dose. Four animals were dosed orally and four animals were dosed intravenously.
In another experiment, six rats were orally dosed with 30 mg/kg of Compound A dissolved in 1% methyl cellulose. Blood samples were taken at 0.5, 1, 2, 5, 8, 12, 16, 20 and 24 hours. The apparent t1/2 for Compound A in the blood was 8 hours. This is a very long t1/2 for a drug in rats and is a good predictor of once-a-day dosing for Compound A in humans. Such a dosing regimen would be a significant therapeutic advantage in the clinic.
The blood samples were analyzed by HPLC. Detection was by UV at 262 nm. Responses were converted to concentrations by comparison to responses from calibration standards injected onto the column. The resulting concentrations were used to calculate the AUC.

The test system of data set [2] is Taxol-induced mechanical allodynia. As to the kind of experiment: Taxol-induced neuropathic pain mouse model, von Frey filament paw withdrawal. The settings on record: mice. The format is in vivo, C57B16 mice. As to the method:
C57B16 male mice were preconditioned (trained) in the enclosure one hour per day in the morning for one week prior to the baseline measurement. The baseline response to the mechanical stimulus was measured using a von Frey filament with 0.6 gram of force (von Frey number 3.84). Briefly, the von Frey filament, was applied to the plantar area of the right hind paw of mouse. The frequency of paw withdrawal was calculated in terms of percentage response, where the higher percentage indicates more pain, whereas the lower the percentage indicates less pain. Based on past experience with the C57B16 strain of adult male mice, animals with baseline no greater than 40% of response were included in further studies, while those with greater than 40% of paw withdrawal response to this particular force of stimulus, known as spontaneous mechanical allodynia, were discarded from these studies. The paw withdrawal behavior includes, licking the stimulated paw, vigorously shaking the paw and active avoidance upon application of innocuous mechanical stimuli. For those mice without spontaneous mechanical allodynia, Taxol was administered to the mice daily, 5 days a week, for longer than a one week period. Generally, mice treated with daily i.p. administration of 1 mg/kg (body weight) of Taxol develop relatively stable mechanical allodynia, neuropathic pain, on day 9 and thereafter. Prior to compound A administration, the responses of mice to 0.6 gram of von Frey filament were measured for two consecutive days in the morning. Only those mice with paw withdrawal response to this particular von Frey filament stimulus no less than 60%, counted as mechanical allodynia, were included for later testing with the compounds of interest.
Five-week old, male C57B1/6 mice were purchased from Charles River and housed at the Renovis animal facility in South San Francisco. Mice were trained for one week in an enclosure made of Plexiglas with dimensions of 2 in×2.5 in×3.5 in (W, H, and L) with a meshed metal support. The baseline of response to mechanical stimulus was measured using a von Frey Filament (0.6 g=3.84 mN). Normally, the baseline response is between 0 to 40%.
Taxol was dissolved (1 mg/ml) in 50% Cremophor EL and 50% alcohol, and freshly diluted with saline to the final concentration of 0.2 mg/ml in 10% Cremophor EL, 10% alcohol. Mice were administered Taxol at 1 mg/kg of body weight, via ip daily, while the animals of the control group received vehicle (10% Cremophor EL and 10% alcohol in saline).
Five-week old C57B1/6 male mice were trained for one week in the von Frey filament test, and baseline response (percent paw withdrawal over 40 tests) to a von Frey filament (0.6 gram=3.84 mN) was measured (average shown in the graph as “baseline (mean)”=31%).
Trained mice were treated with 1 mg/kg (body weight) taxol in 10% Cremophor EL/10% ethanol via ip injection daily through the end of the experiment in order to induce the neuropathic pain state.
The percent pain response (percent paw withdrawal over 40 tests) with a von Frey filament (0.6 gram=3.84 mN) was measured at day 8 and day 9 after pain induction (average of these two shown in the graph as “pre-dosing (mean)”=75%). Those animals with either sensitive baseline (>40% response) or without pain (<60% response) after 9 days of taxol injection were not included in the data analysis. Animals receiving this daily dose of Taxol will develop neuropathic pain.
[…] The animals were then placed in the enclosure for assay. Mechanical allodynia was measured with von Frey filament (0.6 g=3.84 mN) at various times after administration.
Nine taxol-treated animals received […] vehicle (75% polyethylene glycol (PEG)) via ip injection; 8 taxol-treated animals were injected ip with a suspension of Compound A in vehicle at dose of 50 mg/kg (body weight). […]

Molecules are shown by their SMILES. “Also recorded” adds a separate entry of the source.

`CC(=O)Nc1ccc(C(=O)NC(C)(C)C)cc1` [Compound A, N-tert-butyl-4-acetamidobenzamide]: the bioavailability in data set [1] (AUC of 20 mg/kg oral (1% methyl cellulose) vs 20 mg/kg IV (75% PEG), read-out: absolute bioavailability through oral dosing) came to 52%. In addition, the half-life in data set [1] (rats, 30 mg/kg oral in 1% methyl cellulose, read-out: apparent t1/2 in the blood (converted)) was 8 h. Besides, in data set [2] (5 mg/kg/per day and 10 mg/kg/per day i.p., one dose per day, Cremophor EL/ETOH/saline), the “mechanical allodynia under chronic dosing vs vehicle control” value is “less mechanical allodynia”. Further, the “percentage response to 0.6 gram von Frey filament” value is 40+/−10.9% in data set [2] (10 mg/kg i.p. in Cremophor EL/ETOH/saline, 3-hour postdosing, +/-SEM); 42+/−95% in data set [2] (10 mg/kg i.p. in Cremophor EL/ETOH/saline, 6-hour postdosing, +/-SEM); 59+/−8.1% in data set [2] (20 mg/kg i.p. in Cremophor EL/ETOH/saline, 3-hours postdosing, not statistically significant (p 0.08)). For the same molecule, the “pain under chronic dosing” value in data set [2] (10 mg/kg/per day i.p., Cremophor EL/ETOH/saline) is on record as “much less pain”. In addition, in data set [2] (50 mg/kg i.p. single dose in 75% PEG-200, 50 mg/kg), the “analgesic effect on Taxol-induced pain (in words)” value is “has activity preventing Taxol-induced pain; also recorded: strong analgesic effect”. The “percentage of paw withdraw response to 0.6 gram von Frey filament” value was 20+/−7.6% in data set [2] (50 mg/kg i.p. single dose in 75% PEG-200, 1-hour postdosing, +/-SEM); 32.5+/−13.1% in data set [2] (50 mg/kg i.p. single dose in 75% PEG-200, 2-hour postdosing (so in the source), +/-SEM); 50+/−9.3% in data set [2] (50 mg/kg i.p. single dose in 75% PEG-200, 24-hour postdosing, +/-SEM); 65+/−6.3% in data set [2] (50 mg/kg i.p. single dose in 75% PEG-200, 48-hour postdosing, +/-SEM). Moreover, the “time of peak analgesic efficacy post dosing” value in data set [2] (5 and 10 mg/kg i.p. in Cremophor EL/ETOH/saline) is 3 h. Further, the “drug tolerance or drug accumulation under chronic dosing” value in data set [2] (5 and 10 mg/kg/per day i.p. chronic dosing) is “no significant drug tolerance or drug accumulation effects”.

As a reminder, the bioavailability is dose-corrected exposure relative to a reference, in per cent.
